Experimental data taken from patent US10016515B2, “DMA, a bis-benzimidazole, confers radioprotection to the intestine via Akt/NFκB dual pathway activation” (Jawaharlal Nehru University, priority 2016, dated 2018).

Tests used:
Balb/c mice liver tissue = experiment: Biochemical estimations of antioxidant enzymes, thiols and lipid peroxidation in liver; assay type: in vivo, mouse; design: MDA level in hepatic tissues / Reduced glutathione (GSH) level in liver / GST level / GST content / SOD activity / SOD level / Total thiol contents in liver homogenates: unit not given here
Experimental: Mice hepatic tissues were homogenised using REMI homogenizer in phosphate buffer and centrifuged at 10,000×g for 15 min and aliquots of supernatant were separated. The supernatant was used for the biochemical estimations using standard spectrophotometric reported methods. The total protein was determined by the Lowry method.
The liver supernatant was incubated for 10 min and the absorbance was measured at 412 nm and total thiol content was calculated by standard method. The amount of MDA was done by reaction with thiobarbituric acid (TBA) at 532 nm by literature method.
Glutathione was measured according to the Ellman's method.
Superoxide dismutase (SOD) activity was assayed according to the Marklund and Marklund method. The activity of GST was determined by using CDNB as the substrate. The reaction mixture contained 1 mM of CDNB, 1 mM GSH in 0.1M phosphate buffer (pH 6.5). The formation of the GSH-CDNB conjugate was determined at 340 nm and the activity was calculated by using e=9.6 mM-1 cm-1.

[1] = system: Akt/NFκB pathway in Balb/c mice intestine tissue; experiment: Immunoblot analysis and Akt kinase assay in intestine tissue; assay type: in vivo, mouse
Experimental: HEK293, MRC5 and A549 cells were treated as indicated earlier. The cell pellet was resuspended in RIPA buffer and allowed to swell on ice for 30 min. Balb/c intestine tissue and tumor tissues were homogenized in RIPA buffer. Protein concentration was determined using Bradford's Assay (Bangalore Genei). Western blot was performed using standard protocols with primary antibodies against Akt, pAkt (Ser-473), […], mTOR, p70, Bad, PTEN, IKKα/β, p IKKα/β, p53, Bcl2, GAPDH, and NFκB (p65) (Cell Signalling) and horseradish peroxidase-conjugated mouse or rabbit secondary antibody (Abcam). Signals were detected using enhanced chemiluminescence (ECL system, Pierce) on X-ray film.
(§1) Akt kinase activity was determined using Akt Kinase Assay Kit (Nonradioactive) (Cell Signaling Technology, Cat. #9840) following the manufacturer's instructions.

HEK293 cells = experiment: Cell-cycle analysis; assay type: cell-based, human
Experimental: The cell cycle analysis of Akt depleted HEK293 cells were done at 0, 1, 3, 6, 12, 18 and 24 h, washed twice with ice-cold PBS, and fixed in 70% ethanol. Cell pellets were stored at 4° C. for 24 h, and stained with 0.5 mL of propidium iodide (0.1% in 0.6% Triton X-100 in PBS) and 0.5 mL of RNase (2 mg/mL) for 30 min in dark. Samples were then analysed on a FACS Calibur flow-cytometer (Becton Dickinson).

[2] = system: Balb/c mice and tumor bearing mice tissues; experiment: Tissue histopathology after 8 Gy TBI; assay type: in vivo, mouse
Experimental: The hepatic, spleen and small intestine specimens were collected from Balb/c mice and tumor bearing mice three days after 8 Gy TBI with or without pre-treatment with DMA (50 mg/kg) 2 hour before TBI. Tissue specimens were fixed in 10% buffered formalin, embedded in paraffin, sectioned and stained with H&E and examined using an upright trinocular microscope attached to a CCD camera.

[3] = system: Akt in MRC5 and A549 cells; experiment: Akt kinase assay in cell lines; assay type: cell-based, human; details: DMA+Radiation vs control and radiation
Experimental: as §1

[4] = system: Balb/c mice intestine tissue; experiment: Gene expression at mRNA level by RT-PCR; assay type: in vivo, mouse
Experimental: The cDNA generated from total RNA was amplified using 1 μl of the reaction products in 10 μl with respective primers for 45 cycles following standard RT-PCR cycle by SYBR green dye. Transcript levels were calculated according to the 2^−ΔΔCt method, normalized to the expression of GAPDH, and expressed as fold change compared with control.

[5] = 50 mg/kg i.v. before 8Gy TBI, 3 days postirradiation
[6] = melanoma TBM, 50 mg/kg i.v., 8Gy TBI
[7] = DMA pre-treated to radiation group

**Q.** Which results are given for `COc1ccc(-c2nc3cc(-c4nc5cc(N6CCN(C)CC6)ccc5[nH]4)ccc3[nH]2)cc1OC` [DMA, 5-(4-methylpiperazin-1-yl)-2-[2′-(3,4-dimethoxyphenyl)-5′-benzimidazolyl]benzimidazole]?
**A.** Glutathione reductase activity (Balb/c mice liver tissue; DMA 2 h prior to irradiation vs irradiated group): significant decrease; SOD activity (Balb/c mice liver tissue; DMA only): 16.96±1.35; GST level (Balb/c mice liver tissue; DMA only, 200 mg/kg oral): 2.76±0.32; MDA level in hepatic tissues (Balb/c mice liver tissue; DMA only, 200 mg/kg oral): 0.19±0.06; Reduced glutathione (GSH) level in liver (Balb/c mice liver tissue; DMA only, 200 mg/kg oral): 5.07±0.09; Reduced glutathione (GSH) level in liver (Balb/c mice liver tissue; DMA pre-treatment + 8Gy TBI): 3.73±0.69; MDA level in hepatic tissues (Balb/c mice liver tissue; DMA pre-treatment + 8Gy TBI, 24 h post-irradiation): 0.20±0.04; Total thiol contents in liver homogenates (Balb/c mice liver tissue; DMA pre-treatment + TBI): 0.91±0.08; SOD level (Balb/c mice liver tissue; DMA pre-treatment to radiation (8Gy)): 15.50±0.60; GST content (Balb/c mice liver tissue; DMA prior to radiation): 2.78±0.25; Phosphorylated Akt, GSK3β and IKKα/β ([1]; DMA treated intestine tissue prior to irradiation): higher level; Kinase activity of Akt ([1]; DMA+Radiation vs control and radiation, intestine): higher kinase activity; NFκB p65 expression ([1]; DMA+Radiation, intestine): higher expression; G2 check point (HEK293 cells; HEK293, DMA 50 μM alone): no significant G2 check point; G2-M progression (HEK293 cells; HEK293, DMA+Radiation (5Gy), 18 h): significant G2-M delay; Intestine histology [2, 5]: restored the crypts and villi architecture; Liver histology [2, 5]: reduction in the number of pyknotic and inflammatory kupffer cells; Spleen histology [2, 5]: restored the white pulp; Intestine histology, tumor bearing mice [2, 6]: intact better heighted villi and crypts; Lung alveolar structure, tumor bearing mice [2, 6]: less destructured; Spleen histology, tumor bearing mice [2, 6]: structural retention through white and red pulp protection; Akt kinase activity [3]: higher Akt kinase activity; Akt mRNA expression ([4]; DMA 50 mg/kg i.v. + 8Gy TBI vs control): higher expression; Bax, Bcl-2 and p21 mRNA expression level ([4]; DMA by itself): did not increase; Gadd45α mRNA expression ([4]; DMA by itself): significantly increased; Bax gene expression [4, 7]: no significant downregulation; Bcl-2 mRNA level [4, 7]: insignificant increase; p21 mRNA expression ([4]; DMA pretreatment 50 mg/kg i.v. to radiation vs radiation): significantly downregulated; Gadd45α mRNA expression ([4]; DMA pretreatment to radiation): augmented
